In brackets after ≈: the same amount, converted by molar mass. Counter-ions that a name gives are not always drawn. Like-named read-outs stand apart in the source and are kept apart here.
Legend:
Format in all cases: cell-based
E. coli ATCC 10596 = assay: MIC by broth microdilution, E. coli; details: Escherichia coli
Outline: (§1)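 Media: TSB or CAMHB for S. aureus, LB or CAMHB for E. coli, with zinc sulphate to 50 μM final where required. Cells at ~5×10^5 cfu/mL met two-fold compound series; growth was scored by OD600 after 24 h shaking at 37° C.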

S. aureus ATCC 6538 = assay: MIC by broth microdilution, S. aureus; details: Staphylococcus aureus
Outline: as §1

S. uberis ATCC 19436 = assay: MIC by broth microdilution, S. uberis; details: Streptococcus uberis
Outline: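 Streptococcus uberis ATCC 19436 was tested in Todd Hewitt Broth by broth microdilution in 96-well flat bottom plates, in biological triplicate. Overnight cells were diluted to OD600 of approximately 0.025, giving about 5×10^5 cfu/mL in the wells. Compounds were serially diluted two-fold to 200 μl, incubated 24 h at 37° C. and 200 rpm, and the MIC was taken from OD600.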

[1] = ATCC 10536 / ATCC 10596, No Zinc, read-out: E. coli ATCC 10536 MIC
[2] = ATCC 10536 / ATCC 10596, Zinc (50 μM), read-out: E. coli ATCC 10536 MIC
[3] = ATCC6538, No Zinc, read-out: S. aureus ATCC 6538 MIC
[4] = ATCC6538, Zinc (50 μM), read-out: S. aureus ATCC 6538 MIC
[5] = ATCC19436, No Zinc, read-out: S. uberis ATCC 19436 MIC
[6] = ATCC19436, Zinc (50 μM), read-out: S. uberis ATCC 19436 MIC
[7] = ATCC 10536 / ATCC 10596, read-out: E. coli ATCC 10536 MIC, No Zinc
[8] = ATCC 10536 / ATCC 10596, read-out: E. coli ATCC 10536 MIC, Zinc (50 μM)
[9] = ATCC6538, read-out: S. aureus ATCC 6538 MIC, No Zinc
[10] = ATCC6538, read-out: S. aureus ATCC 6538 MIC, Zinc (50 μM)
[11] = ATCC19436, read-out: S. uberis ATCC 19436 MIC, No Zinc
[12] = ATCC19436, read-out: S. uberis ATCC 19436 MIC, Zinc (50 μM)

Compound	MIC (E. coli ATCC 10596; [1]) [µg/mL]	MIC (E. coli ATCC 10596; [2]) [µg/mL]	MIC (S. aureus ATCC 6538; [3]) [µg/mL]	MIC (S. aureus ATCC 6538; [4]) [µg/mL]	MIC (S. uberis ATCC 19436; [5]) [µg/mL]	MIC (S. uberis ATCC 19436; [6]) [µg/mL]	MIC (E. coli ATCC 10596; [7]) [µg/mL]	MIC (E. coli ATCC 10596; [8]) [µg/mL]	MIC (S. aureus ATCC 6538; [9]) [µg/mL]	MIC (S. aureus ATCC 6538; [10]) [µg/mL]	MIC (S. uberis ATCC 19436; [11]) [µg/mL]	MIC (S. uberis ATCC 19436; [12]) [µg/mL]
C=CCS(=O)(=O)Nc1cccc2ccc(CN(C)C)nc12 [ZDR259, N-(2-((Dimethylamino)methyl)quinolin-8-yl)prop-2-ene-1-sulfonamide]	> 256	> 256	> 256	256 (≈ 838 µM)	> 256	0.25 (≈ 0.819 µM)						
O=C(CNCc1ccc2cccc(NS(=O)(=O)c3ccc(C(F)(F)F)cc3)c2n1)NCCCN1CCCCC1 [ZDR262, N-(3-(Piperidin-1-yl)propyl)-2-(((8-((4-(trifluoromethyl)phenyl)sulfonamido)quinolin-2-yl)methyl)amino)acetamide di-trifluoroacetate]							32 (≈ 56.8 µM)	64 (≈ 114 µM)	64 (≈ 114 µM)	128 (≈ 227 µM)	8 (≈ 14.2 µM)	16 (≈ 28.4 µM)
CN(C)Cc1ccc2cccc(NS(=O)(=O)C3CCNCC3)c2n1 [ZDR263, N-(2-((Dimethylamino)methyl)quinolin-8-yl)piperidine-4-sulfonamide di-trifluoroacetate]							> 256	> 256	> 256	> 256	> 256	256 (≈ 735 µM)
O=C(CNCc1ccc2cccc(NS(=O)(=O)c3ccc(C(F)(F)F)cc3)c2n1)NC(CO)(CO)CO [ZDR265, N-(1,3-Dihydroxy-2-(hydroxymethyl)propan-2-yl)-2-(((8-((4-(trifluoromethyl)phenyl)sulfonamido)quinolin-2-yl)methyl)amino)acetamide trifluoroacetate]							256	256	64	64	128	256
NC(=O)CNCc1ccc2cccc(NS(=O)(=O)c3ccc(C(F)(F)F)cc3)c2n1 [ZDR266, 2-(((8-((4-(Trifluoromethyl)phenyl)sulfonamido)quinolin-2-yl)methyl)amino)acetamide trifluoroacetate]							128	256	64	32	16	16
O=C(CNCc1ccc2cccc(NS(=O)(=O)c3ccc(C(F)(F)F)cc3)c2n1)NO [ZDR267, N-hydroxy-2-(((8-((4-(trifluoromethyl)phenyl)sulfonamido)quinolin-2-yl)methyl)amino)acetamide trifluoroacetate]							> 256	> 256	256	128	256	256
CN(C)CCNC(=O)CNCc1ccc2cccc(NS(=O)(=O)c3ccc(C(F)(F)F)cc3)c2n1 [ZDR268, N-(2-(Dimethylamino)ethyl)-2-(((8-((4-(trifluoromethyl)phenyl)sulfonamido)quinolin-2-yl)methyl)amino)acetamide di-trifluoroacetate]							64 (≈ 126 µM)	64 (≈ 126 µM)	64 (≈ 126 µM)	128 (≈ 251 µM)	32 (≈ 62.8 µM)	16 (≈ 31.4 µM)
CNC(=O)CNCc1ccc2cccc(NS(=O)(=O)c3ccc(C(F)(F)F)cc3)c2n1 [ZDR270, N-Methyl-2-(((8-((4-(trifluoromethyl)phenyl)sulfonamido)quinolin-2-yl)methyl)amino)acetamide trifluoroacetate]							128	256	32	32	16	4
CN(C)Cc1ccc2cccc(NS(=O)(=O)c3ccc(Br)cc3)c2n1 [ZDR305, 4-Bromo-N-(2-((dimethylamino)methyl)quinolin-8-yl)benzenesulfonamide]	> 256	> 256	64 (≈ 152 µM)	128 (≈ 305 µM)	> 256	0.0625 (≈ 0.149 µM)						
CN(C)Cc1ccc2cccc(NS(=O)(=O)c3ccc(OC(F)F)cc3)c2n1 [ZDR306, 4-(Difluoromethoxy)-N-(2-((dimethylamino)methyl)quinolin-8-yl)benzenesulfonamide]	> 256	> 256	128 (≈ 314 µM)	128 (≈ 314 µM)	128 (≈ 314 µM)	0.125 (≈ 0.307 µM)						
CN(C)Cc1ccc2cccc(NS(=O)(=O)c3ccc(C(C)(C)C)cc3)c2n1 [ZDR307, 4-(tert-Butyl)-N-(2-((dimethylamino)methyl)quinolin-8-yl)benzenesulfonamide]	> 256	> 256	> 256	> 256	> 256	0.0625 (≈ 0.157 µM)						
COC(=O)c1cccc(S(=O)(=O)Nc2cccc3ccc(CN(C)C)nc23)c1 [ZDR308, Methyl 3-(N-(2-((dimethylamino)methyl)quinolin-8-yl)sulfamoyl)benzoate]	256 (≈ 641 µM)	> 256	256 (≈ 641 µM)	> 256	256 (≈ 641 µM)	0.25 (≈ 0.626 µM)						
CN(C)Cc1ccc2cccc(NS(=O)(=O)c3cccc(Br)c3)c2n1 [ZDR309, 3-Bromo-N-(2-((dimethylamino)methyl)quinolin-8-yl)benzenesulfonamide]	> 256	> 256	64 (≈ 152 µM)	128 (≈ 305 µM)	128 (≈ 305 µM)	0.125 (≈ 0.297 µM)						
CN(C)Cc1ccc2cccc(NS(=O)(=O)c3cccc(S(C)(=O)=O)c3)c2n1 [ZDR310, N-(2-((Dimethylamino)methyl)quinolin-8-yl)-3-(methylsulfonyl)benzenesulfonamide]	> 256	> 256	> 256	> 256	256 (≈ 610 µM)	4 (≈ 9.53 µM)						
CC(=O)c1cccc(S(=O)(=O)Nc2cccc3ccc(CN(C)C)nc23)c1 [ZDR311, 3-Acetyl-N-(2-((dimethylamino)methyl)quinolin-8-yl)benzenesulfonamide]	> 256	> 256	> 256	256 (≈ 668 µM)	256 (≈ 668 µM)	0.0625 (≈ 0.163 µM)						
CN(C)Cc1ccc2cccc(NS(=O)(=O)c3cccc(F)c3)c2n1 [ZDR312, N-(2-((Dimethylamino)methyl)quinolin-8-yl)-3-fluorobenzenesulfonamide]	> 256	> 256	256 (≈ 712 µM)	256 (≈ 712 µM)	128 (≈ 356 µM)	0.125 (≈ 0.348 µM)						
CN(C)Cc1ccc2cccc(NS(=O)(=O)c3cccc([N+](=O)[O-])c3)c2n1 [ZDR313, N-(2-((Dimethylamino)methyl)quinolin-8-yl)-3-nitrobenzenesulfonamide]	> 256	> 256	128 (≈ 331 µM)	> 256	128 (≈ 331 µM)	0.25 (≈ 0.647 µM)						
COc1cccc(S(=O)(=O)Nc2cccc3ccc(CN(C)C)nc23)c1 [ZDR314, N-(2-((Dimethylamino)methyl)quinolin-8-yl)-3-methoxybenzenesulfonamide]	> 256	> 256	256 (≈ 689 µM)	> 256	128 (≈ 345 µM)	0.25 (≈ 0.673 µM)						
Cc1cccc(S(=O)(=O)Nc2cccc3ccc(CN(C)C)nc23)c1 [ZDR315, N-(2-((Dimethylamino)methyl)quinolin-8-yl)-3-methylbenzenesulfonamide]	> 256	> 256	256 (≈ 720 µM)	> 256	> 256	0.25 (≈ 0.703 µM)						
CN(C)Cc1ccc2cccc(NS(=O)(=O)CCC(F)(F)F)c2n1 [ZDR316, N-(2-((Dimethylamino)methyl)quinolin-8-yl)-3,3,3-trifluoropropane-1-sulfonamide]	> 256	> 256	> 256	> 256	> 256	0.125 (≈ 0.346 µM)						

Source: patent publication US11691949B2, “Quinoline sulfonamide compounds and their use as antibacterial agents” (OTAGO INNOVATION LIMITED, priority 2017, dated 2023)
